Measured values from patent US20230286958A1, “PLASMA KALLIKREIN INHIBITORS” (Merck Sharp & Dohme LLC, priority 2020, published 2023).

Tests used:
human Factor XIa = human Factor XIa (Homo sapiens (Human), UniProt P03951); assay: Factor XIa Assay (fluorogenic substrate GPR-AFC); type: biochemical; conditions: Factor XIa (FXIa)
Description: (§1) The effectiveness of a compound of the present invention as an inhibitor of Coagulation Factor XIa can be determined using a relevant purified serine protease, and an appropriate synthetic substrate. The rate of hydrolysis of the chromogenic or fluorogenic substrate by the relevant serine protease was measured both in the absence and presence of compounds of the present invention. Assays were conducted at room temperature or at 37° C. […] A decrease in the rate of fluorescence change in the presence of inhibitor is indicative of enzyme inhibition. Such methods are known to one skilled in the art. The results of this assay are expressed as the half-maximal inhibitory concentrations (IC50), or the inhibitory constant, Ki.
Compounds were pre-incubated for 30 minutes at 25° C. with human (0.04 nM) Factor XIa in 50 mM HEPES buffer with 150 mM sodium chloride, 5 mM calcium chloride, 0.1% PEG 8000, pH 7.4. […] The % inhibition for each data point was calculated from the data and analyzed using the log (inhibitor) vs. response four parameters equation to determine the half-maximal inhibitory concentrations (IC50). The IC50 were converted to equilibrium inhibitory constants (Ki) using the Cheng-Prusoff equation.

Human plasma kallikrein = Human plasma kallikrein (Homo sapiens (Human), UniProt P03952); assay: Kallikrein Assay (fluorogenic substrate Acetyl-K-P-R-AFC); type: biochemical; conditions: Plasma Kallikrein (PKal)
Chain of Human plasma kallikrein (P03952 391-638): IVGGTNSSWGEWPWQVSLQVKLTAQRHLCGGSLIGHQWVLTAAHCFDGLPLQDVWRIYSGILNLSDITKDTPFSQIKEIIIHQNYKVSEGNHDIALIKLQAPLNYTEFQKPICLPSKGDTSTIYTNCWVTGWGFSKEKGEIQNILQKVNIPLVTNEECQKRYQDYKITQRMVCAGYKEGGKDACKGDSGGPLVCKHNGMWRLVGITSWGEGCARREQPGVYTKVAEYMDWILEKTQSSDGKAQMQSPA
Chain of Human plasma kallikrein (P03952 20-390 partner): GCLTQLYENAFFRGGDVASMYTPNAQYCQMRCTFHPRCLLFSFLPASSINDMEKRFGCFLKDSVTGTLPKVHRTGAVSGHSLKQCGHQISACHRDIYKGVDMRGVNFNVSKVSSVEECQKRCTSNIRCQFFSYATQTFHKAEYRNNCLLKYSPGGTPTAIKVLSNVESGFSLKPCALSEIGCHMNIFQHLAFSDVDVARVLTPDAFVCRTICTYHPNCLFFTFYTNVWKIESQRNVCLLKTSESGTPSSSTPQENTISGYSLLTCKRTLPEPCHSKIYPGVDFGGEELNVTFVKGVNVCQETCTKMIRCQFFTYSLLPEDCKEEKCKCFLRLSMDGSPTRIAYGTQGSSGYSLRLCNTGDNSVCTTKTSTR
Description: as §1, with “Kallikrein” for “Coagulation Factor XIa”
Kallikrein determinations were made in 50 mM HEPES buffer at pH 7.4 containing 150 mM NaCl, 5 mM CaC12, and 0.1% PEG 8000 (polyethylene glycol; Fisher Scientific). Determinations were made using purified Human plasma kallikrein at a final concentration of 0.5 nM (Enzyme Research Laboratories) and the synthetic substrate, Acetyl-K-P-R-AFC (Sigma # C6608) at a concentration of […].
Times required to achieve equilibration between enzyme and inhibitor were determined in control experiments. […] IC50 was determined by inflection point from a four parameter logistic curve fit. Ki was calculated using the Cheng Prusoff equation, Ki = IC50/(1+([S]/Km)).

Chain of human Factor XIa (P03951 388-625 limits assumed): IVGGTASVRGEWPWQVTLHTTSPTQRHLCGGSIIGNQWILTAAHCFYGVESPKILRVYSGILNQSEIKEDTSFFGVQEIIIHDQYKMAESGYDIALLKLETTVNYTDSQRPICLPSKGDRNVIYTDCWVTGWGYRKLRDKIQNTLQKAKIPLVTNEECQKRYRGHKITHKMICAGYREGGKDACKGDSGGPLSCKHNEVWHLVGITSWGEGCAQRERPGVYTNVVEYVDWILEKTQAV
Chain of human Factor XIa (P03951 19-387 partner limits assumed): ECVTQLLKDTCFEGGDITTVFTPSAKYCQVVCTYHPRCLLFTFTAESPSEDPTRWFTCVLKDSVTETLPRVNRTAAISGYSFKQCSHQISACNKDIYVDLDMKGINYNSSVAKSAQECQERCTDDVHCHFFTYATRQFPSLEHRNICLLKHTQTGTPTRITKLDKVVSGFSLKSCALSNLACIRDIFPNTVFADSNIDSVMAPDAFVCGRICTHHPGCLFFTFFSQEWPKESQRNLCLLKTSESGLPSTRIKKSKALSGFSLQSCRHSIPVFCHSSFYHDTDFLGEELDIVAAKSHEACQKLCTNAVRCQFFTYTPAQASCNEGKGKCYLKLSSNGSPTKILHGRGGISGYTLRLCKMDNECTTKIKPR

SMILES | IC50 (human Factor XIa) [nM] | IC50 (Human plasma kallikrein) [nM]
CC(c1cnc(N2C[C@H]3C[C@H]3C2=S)nc1)n1cc(NC(=O)c2cncc(-c3c(C(F)F)ccc(Cl)c3F)n2)cn1 (single isomer, unassigned) [Example 31, 6-(3-Chloro-6-(difluoromethyl)-2-fluorophenyl)-N-(1-((S or R)-1-(2-((1R,5S)-2-thioxo-3-azabicyclo[3.1.0]hexan-3-yl)pyrimidin-5-yl)ethyl)-1H-pyrazol-4-yl)pyrazine-2-carboxamide] | > 10000 | 6.3
Cc1ncc(-c2c(C#N)ccc(Cl)c2F)nc1C(=O)Nc1cnn(C(C)c2cnc(N3C[C@H]4C[C@H]4C3=O)c(C)n2)c1 (single isomer, unassigned) [Example 234, 6-(3-Chloro-6-cyano-2-fluorophenyl)-3-methyl-N-(1-((R or S)-1-(6-methyl-5-((1R,5S)-2-oxo-3-azabicyclo[3.1.0]hexan-3-yl)pyrazin-2-yl)ethyl)-1H-pyrazol-4-yl)pyrazine-2-carboxamide] | 679 | 1
Cc1ncc(-c2c(C(F)F)ccc(Cl)c2F)nc1C(=O)Nc1cnn(Cc2cnc(N3C[C@H]4C[C@H]4C3=O)c3c2OCO3)c1 [Example 149, 6-(3-Chloro-6-(difluoromethyl)-2-fluorophenyl)-3-methyl-N-(1-((4-((1R,5S)-2-oxo-3-azabicyclo[3.1.0]hexan-3-yl)-[1,3]dioxolo[4,5-c]pyridin-7-yl)methyl)-1H-pyrazol-4-yl)pyrazine-2-carboxamide] | 244 | 0.9
C[C@@H](c1cnc(N2C[C@H]3C[C@H]3C2=O)nc1)n1cc(NC(=O)c2cncc(-c3c(C(F)F)ccc(Cl)c3F)n2)cn1 [Example 172, 6-(3-Chloro-6-(difluoromethyl)-2-fluorophenyl)-N-(1-((S)-1-(2-((1R,5S)-2-oxo-3-azabicyclo[3.1.0]hexan-3-yl)pyrimidin-5-yl)ethyl)-1H-pyrazol-4-yl)pyrazine-2-carboxamide] | 6730 | 6.4
O=C(Nc1cnn(Cc2ccc(N3C[C@H]4C[C@H]4C3=O)nc2)c1)c1cncc(-c2c(C(F)F)ccc(Cl)c2F)n1 [Example 9, 6-(3-Chloro-6-(difluoromethyl)-2-fluorophenyl)-N-(1-((6-((1R,5S)-2-oxo-3-azabicyclo[3.1.0]hexan-3-yl)pyridin-3-yl)methyl)-1H-pyrazol-4-yl)pyrazine-2-carboxamide] | > 10000 | 1
Cc1nc(Cn2cc(NC(=O)c3nc(-c4c(C(F)F)ccc(Cl)c4F)cnc3C)cn2)ncc1N1C[C@H]2C[C@H]2C1=O [Example 93, 6-(3-Chloro-6-(difluoromethyl)-2-fluorophenyl)-3-methyl-N-(1-((4-methyl-5-((1R,5S)-2-oxo-3-azabicyclo[3.1.0]hexan-3-yl)pyrimidin-2-yl)methyl)-1H-pyrazol-4-yl)pyrazine-2-carboxamide] | > 10000 | 19.9
CC(c1ccc(N2CC3CC3C2=O)nc1)n1cc(NC(=O)c2cncc(-c3c(C(F)F)ccc(Cl)c3F)n2)cn1 (single isomer, unassigned) [Example 11, 6-(3-Chloro-6-(difluoromethyl)-2-fluorophenyl)-N-(1-((R or S)-1-(6-((1R,5S or 1S,5R)-2-oxo-3-azabicyclo[3.1.0]hexan-3-yl)pyridin-3-yl)ethyl)-1H-pyrazol-4-yl)pyrazine-2-carboxamide] | > 10000 | 17.2
Cc1nc(N2C[C@H]3C[C@H]3C2=O)ncc1C1(n2cc(NC(=O)c3nc(-c4c(C(F)F)ccc(Cl)c4F)cnc3C)cn2)CC1 [Example 54, 6-(3-Chloro-6-(difluoromethyl)-2-fluorophenyl)-3-methyl-N(1-(1-(4-methyl-2-((1R,5S)-2-oxo-3-azabicyclo[3.1.0]hexan-3-yl)pyrimidin-5-yl)cyclopropyl)-1H-pyrazol-4-yl)pyrazine-2-carboxamide] | 1280 | 2.4
Cc1cc(C(C)n2cc(NC(=O)c3cncc(-c4c(C(F)F)ccc(Cl)c4F)n3)cn2)cnc1N1C[C@H]2C[C@H]2C1=O (single isomer, unassigned) [Example 67, 6-(3-Chloro-6-(difluoromethyl)-2-fluorophenyl)-N-(1-((R or S)-1-(5-methyl-6-((1R,5S)-2-oxo-3-azabicyclo[3.1.0]hexan-3-yl)pyridin-3-yl)ethyl)-1H-pyrazol-4-yl)pyrazine-2-carboxamide] | 389 | 2.1
Cc1nc(Cn2cc(NC(=O)c3cncc(-c4c(C(F)F)ccc(Cl)c4F)n3)cn2)ccc1N1C[C@H]2C[C@H]2C1=O [Example 64, 6-(3-Chloro-6-(difluoromethyl)-2-fluorophenyl)-N-(1-((6-methyl-5-((1R,5S)-2-oxo-3-azabicyclo[3.1.0]hexan-3-yl)pyridin-2-yl)methyl)-1H-pyrazol-4-yl)pyrazine-2-carboxamide] | > 10000 | 3.4

Now from value to molecule:

IC50 (human Factor XIa) [nM] | IC50 (Human plasma kallikrein) [nM] | SMILES
445 | 1.8 | Cc1cc(C(C)n2cc(NC(=O)c3nc(-c4c(C(F)F)ccc(Cl)c4F)cnc3C)cn2)nnc1N1C[C@H]2C[C@H]2C1=O (single isomer, unassigned) [Example 103, 6-(3-Chloro-6-(difluoromethyl)-2-fluorophenyl)-3-methyl-N-(1-((R or S)-1-(5-methyl-6-((1R,5S)-2-oxo-3-azabicyclo[3.1.0]hexan-3-yl)pyridazin-3-yl)ethyl)-1H-pyrazol-4-yl)pyrazine-2-carboxamide]
> 10000 | 0.9 | Cc1ncc(-c2c(C(F)F)ccc(Cl)c2F)nc1C(=O)Nc1cnn(C(C)c2ncc(N3C[C@H]4C[C@H]4C3=O)c(C)c2F)c1 (single isomer, unassigned) [Example 245, 6-(3-Chloro-6-(difluoromethyl)-2-fluorophenyl)-N-(1-((S or R)-1-(3-fluoro-4-methyl-5-((1R,5S)-2-oxo-3-azabicyclo[3.1.0]hexan-3-yl)pyridin-2-yl)ethyl)-1H-pyrazol-4-yl)-3-methylpyrazine-2-carboxamide]
550 | 0.8 | Cc1ncc(-c2c(C(F)F)ccc(Cl)c2F)nc1C(=O)Nc1cnn(C(C)c2cnc(N3C[C@H]4C[C@H]4C3=O)c(C)n2)c1 (single isomer, unassigned) [Example 14, 6-(3-Chloro-6-(difluoromethyl)-2-fluorophenyl)-3-methyl-N-(1-((S or R)-1-(6-methyl-5-((1R,5S)-2-oxo-3-azabicyclo[3.1.0]hexan-3-yl)pyrazin-2-yl)ethyl)-1H-pyrazol-4-yl)pyrazine-2-carboxamide]
739 | 0.7 | Cc1cc(C(C)n2cc(NC(=O)c3nc(-c4c(C(F)F)ccc(Cl)c4F)cnc3C)cn2)nnc1N1C[C@H]2C[C@H]2C1=O (single isomer, unassigned) [Example 102, 6-(3-Chloro-6-(difluoromethyl)-2-fluorophenyl)-3-methyl-N-(1-((S or R)-1-(5-methyl-6-((1R,5S)-2-oxo-3-azabicyclo[3.1.0]hexan-3-yl)pyridazin-3-yl)ethyl)-1H-pyrazol-4-yl)pyrazine-2-carboxamide]
903 | 5 | Cc1cc(C(C)n2cc(NC(=O)c3nc(-c4c(C(F)F)ccc(Cl)c4F)cnc3C(C)O)cn2)nnc1N1C[C@H]2C[C@H]2C1=O (single isomer, unassigned) [Example 231, 6-(3-Chloro-6-(difluoromethyl)-2-fluorophenyl)-3-((R or S)-1-hydroxyethyl)-N-(1-((R or S)-1-(5-methyl-6-((1R,5S)-2-oxo-3-azabicyclo[3.1.0]hexan-3-yl)pyridazin-3-yl)ethyl)-1H-pyrazol-4-yl)pyrazine-2-carboxamide]
3450 | 14 | Cc1c(C(C)n2cc(NC(=O)c3cncc(-c4c(C(F)F)ccc(Cl)c4F)n3)cn2)nnc(N2C[C@H]3C[C@H]3C2=O)c1C (single isomer, unassigned) [Example 110, 6-(3-Chloro-6-(difluoromethyl)-2-fluorophenyl)-N-(1-((S or R)-1-(4,5-dimethyl-6-((1R,5S)-2-oxo-3-azabicyclo[3.1.0]hexan-3-yl)pyridazin-3-yl)ethyl)-1H-pyrazol-4-yl)pyrazine-2-carboxamide]
110 | 0.1 | Cc1nc(C(C)n2cc(NC(=O)c3nc(-c4c(C(F)F)ccc(Cl)c4F)cnc3CO)cn2)cnc1N1C[C@H]2C[C@H]2C1=O (single isomer, unassigned) [Example 198, 6-(3-Chloro-6-(difluoromethyl)-2-fluorophenyl)-3-(hydroxymethyl-N-(1-((R or S)-I-(6-methyl-5-((1R,5S)-2-oxo-3-azabicyclo[3.1.0]hexan-3-yl)pyrazin-2-yl)ethyl)-1H-pyrazol-4-yl)pyrazine-2-carboxamide]
